# Laboratory results from patent publication US10561661B2, “Purine derivative compounds for medical use” (MANROS THERAPEUTICS, priority 2014, dated 2020).
# Entries after “also recorded” stand apart in the source; their conditions may differ.
# Tests used:
# [1] = test system: cftr−/− alveolar macrophages; assay: Intracellular Pseudomonas aeruginosa growth (bacterial killing) in cftr−/− alveolar macrophages, live cell microscopy; format: cell-based, mouse; conditions: 20 μM, 6 h observation
# Experimental: (§1) FIG. 2. Inhibition of Pseudomonas aeruginosa growth in cftr^−/− and ΔF508 alveolar macrophages by M3 metabolite and derivatives. A comparison of intracellular bacterial growth in single murine alveolar macrophages was carried out using live cell microscopy. Cells were fed DS-Red expressing P. aeruginosa for 30 min (MOI<10). Cells were exposed to M3 metabolite for 20 min prior to exposure to bacteria. Adherent and non-ingested bacteria were then removed by washing and incubation with antibiotics and live alveolar macrophages were observed microscopically for approximately 6 hours.
# (§2) The data are presented as means of fluorescence intensities±SEM. Control conditions summarized data obtained from: WT—2 mice, 38 cells; ΔF508—6 mice, 120 cells; cftr^−/− 4 mice, 87 cells. […] In the presence of M3 metabolite we analysed data from: ΔF508—3 mice, 57 cells; cftr^−/−1 mouse, 67 cells. […]
# [2] = test system: Pseudomonas aeruginosa; assay: Growth of P. aeruginosa culture (optical density); format: cell-based; conditions: 37° C.
# Experimental: FIG. 3. Absence of growth inhibition of P. aeruginosa culture by M3 metabolite and derivatives. 1/100 dilution of an overnight culture of P. aeruginosa was introduced in fresh culture medium and cultures were incubated at 37° C. with 20 μM of M3 metabolite or derivatives or 1 μM bafilomycin (negative control). Optical density (600 nm) was measured 2 h and 3.5 h after starting the cultivation, and every 30 min for 2.5 h.
# Pseudomonas aeruginosa DsRed from single colony was grown in gentamicin containing TSB overnight at 37° C. with agitation at 300 RPM. Next day it was started the new culture at 1/100 dilution and certain compound of blocker were added to the tubes. We measured optical density (660 nm) of bacterial culture at every 30 minutes.
# [3] = test system: human alveolar macrophages; assay: Phagosomal acidification, pHrodo Red BioParticles, plate reader; format: cell-based; conditions: 10 μM, read over 3 h
# Experimental: (1C) Comparative effect of various compounds on phagosomal pH in human alveolar macrophages. Data summary from 3-10 patients for each compound tested at 10 μM. Data was obtained in triplicate for each patient and averaged for all patients with error bars indicating the SEM. Data were normalized to fluorescence changes observed in untreated control cells for each patient before averaging.
# Broncho-alveolar lavage from humans was performed on consenting adults following a protocol approved by The University of Chicago Institutional Review Board. The patients included men and women, smokers and non-smokers, undergoing bronchoscopy for cancer biopsies prior to clinical treatment. […]
# In brief, broncho-alveolar lavage fluid was strained through a 70 μm sterile cell strainer into a 50 ml conical tube centrifuge tube with a maximum broncho-alveolar lavage volume of 40 ml and a minimum volume of 10 ml followed by centrifugation at 1000×g for 5 min at 4° C. […] Cells were counted on Countess® (Invitrogen) with a distribution cut-off of 20-60 μm and cell viability determined by trypan blue exclusion. […]
# After 24 h incubation cells were exposed to pHrodo Red BioParticles® (Life Technologies). Acidification was measured on 96-well plate format with 560 and 580 nm excitation and emission wavelengths at 37° C. in a Synergy MX, BioTek® plate reader. […]
# [4] = target: DYRK3 (Homo sapiens, UniProt O43781); assay: IC50 towards inhibition of various kinases: DYRK3; format: biochemical
# DYRK3, sequence (O43781 whole entry, species assumed): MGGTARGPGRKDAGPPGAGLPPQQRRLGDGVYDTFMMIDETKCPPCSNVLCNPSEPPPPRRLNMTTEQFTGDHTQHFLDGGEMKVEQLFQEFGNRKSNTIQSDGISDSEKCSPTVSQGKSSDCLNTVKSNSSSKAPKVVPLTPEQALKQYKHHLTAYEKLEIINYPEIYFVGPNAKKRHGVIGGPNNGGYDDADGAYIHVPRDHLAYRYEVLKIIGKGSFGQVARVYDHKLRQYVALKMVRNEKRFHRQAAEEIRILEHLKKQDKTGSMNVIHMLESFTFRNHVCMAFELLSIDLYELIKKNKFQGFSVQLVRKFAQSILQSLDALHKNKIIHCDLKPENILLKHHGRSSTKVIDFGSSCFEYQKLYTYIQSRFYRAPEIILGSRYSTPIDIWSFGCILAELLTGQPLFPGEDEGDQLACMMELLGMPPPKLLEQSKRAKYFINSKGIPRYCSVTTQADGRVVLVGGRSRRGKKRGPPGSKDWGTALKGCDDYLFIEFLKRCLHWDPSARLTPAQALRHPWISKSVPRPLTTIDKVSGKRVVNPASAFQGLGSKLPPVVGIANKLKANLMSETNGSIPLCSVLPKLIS
# [5] = test system: ΔF508 CFTR alveolar macrophages; assay: Intracellular Pseudomonas aeruginosa growth (bacterial killing) in ΔF508 CFTR alveolar macrophages, live cell microscopy; format: cell-based, mouse; conditions: ΔF508 CFTR expressing alveolar macrophages, 20 μM, 6 h observation
# Experimental: as §1, §2
# [6] = target: DYRK2 (Homo sapiens, UniProt Q92630); assay: IC50 towards inhibition of various kinases: DYRK2; format: biochemical
# DYRK2, sequence (Q92630 whole entry, species assumed, the tested form may be a part): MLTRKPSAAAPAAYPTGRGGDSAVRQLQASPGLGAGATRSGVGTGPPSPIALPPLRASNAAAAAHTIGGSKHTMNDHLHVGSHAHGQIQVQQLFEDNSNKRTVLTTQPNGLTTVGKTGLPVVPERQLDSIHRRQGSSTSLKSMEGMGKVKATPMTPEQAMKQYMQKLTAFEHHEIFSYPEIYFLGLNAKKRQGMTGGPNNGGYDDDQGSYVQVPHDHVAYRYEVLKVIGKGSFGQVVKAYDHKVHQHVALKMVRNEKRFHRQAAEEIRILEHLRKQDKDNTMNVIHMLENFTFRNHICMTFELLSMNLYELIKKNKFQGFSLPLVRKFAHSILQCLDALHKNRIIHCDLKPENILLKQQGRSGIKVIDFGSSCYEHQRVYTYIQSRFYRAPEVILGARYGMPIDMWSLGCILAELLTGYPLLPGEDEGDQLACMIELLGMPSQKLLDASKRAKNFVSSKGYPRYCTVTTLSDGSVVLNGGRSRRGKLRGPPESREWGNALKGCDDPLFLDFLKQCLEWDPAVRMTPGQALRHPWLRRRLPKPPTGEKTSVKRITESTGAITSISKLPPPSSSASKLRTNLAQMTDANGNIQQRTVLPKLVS
# [7] = test system: mouse alveolar macrophages; assay: Lysosomes fusion: Rhodamine-110 processing and pHrodo-Red E. coli Bioparticles in murine alveolar macrophages; format: cell-based
# Experimental: We added Rhodamine-110 to the cells prior the pHrodo-Red conjugated E. coli Bioparticles® providing simultaneous uptake of both probes into phagosomes. Lysosomes fusion into nascent phagosomes brings proteases including cathepsin and triggers Rhodamine conversion.
# Isolated mouse alveolar macrophages (from cftr^−/− or Δ508F CFTR mice) were cultured adherent on the poly-L-lysine coated glass bottom dishes for 24-48 h. Then they were treated with 10 μM Rhodamine-110 for 20 min at room temperature in the dark with following incubation with 0.1 mg/ml pHrodo-Red conjugated E. coli Bioparticles® for 1 hour at 37° C. […] Then the cells were washed twice with PBS, fixed with 4% PFA. The images were acquired immediately after fixation on Leica SP5 2-photon laser confocal microscope with a 63× (NA1.4) oil objective.
# Isolated mouse macrophages were plated on 96-well plate with a density of 3-6,000 cells (20-60 μm diameter) per well, incubated in complete DMEM (10% FBS, 1% penicillin-streptomycin) at 37° C. under 5% CO2 pressure for 24-48 h. The cells were loaded with 5 μM Rhodamine-110 for 20 min at room temperature in the dark, fed with E. coli Bioparticles® conjugated to pHrodo-Red for 1 h at 37° C.
# [8] = target: kinase; conditions: cited from earlier work
# [9] = target: DYRK1A (Homo sapiens, UniProt Q13627); assay: IC50 towards inhibition of various kinases: DYRK1A; format: biochemical
# [10] = target: CLK1 (Homo sapiens, UniProt P49759); assay: IC50 towards inhibition of various kinases: CLK1; format: biochemical
# CLK1, sequence (P49759 whole entry): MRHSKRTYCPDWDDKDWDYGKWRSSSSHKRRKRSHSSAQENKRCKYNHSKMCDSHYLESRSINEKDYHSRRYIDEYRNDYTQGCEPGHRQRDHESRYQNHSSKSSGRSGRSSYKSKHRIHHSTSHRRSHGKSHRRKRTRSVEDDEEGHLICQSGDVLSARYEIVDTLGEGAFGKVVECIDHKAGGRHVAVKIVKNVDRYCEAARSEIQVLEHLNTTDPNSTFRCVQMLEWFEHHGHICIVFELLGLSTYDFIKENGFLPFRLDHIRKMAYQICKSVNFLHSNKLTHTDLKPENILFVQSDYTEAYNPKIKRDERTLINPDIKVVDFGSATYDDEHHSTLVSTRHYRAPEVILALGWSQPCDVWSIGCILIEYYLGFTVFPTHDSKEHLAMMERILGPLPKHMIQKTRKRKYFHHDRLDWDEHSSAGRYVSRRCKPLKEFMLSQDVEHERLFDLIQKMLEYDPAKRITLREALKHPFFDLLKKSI
# [11] = target: CDK9/cyclin T (Homo sapiens, UniProt P50750); assay: IC50 towards inhibition of various kinases: CDK9/cyclin T; format: biochemical
# CDK9/cyclin T, sequence (P50750 whole entry, species assumed): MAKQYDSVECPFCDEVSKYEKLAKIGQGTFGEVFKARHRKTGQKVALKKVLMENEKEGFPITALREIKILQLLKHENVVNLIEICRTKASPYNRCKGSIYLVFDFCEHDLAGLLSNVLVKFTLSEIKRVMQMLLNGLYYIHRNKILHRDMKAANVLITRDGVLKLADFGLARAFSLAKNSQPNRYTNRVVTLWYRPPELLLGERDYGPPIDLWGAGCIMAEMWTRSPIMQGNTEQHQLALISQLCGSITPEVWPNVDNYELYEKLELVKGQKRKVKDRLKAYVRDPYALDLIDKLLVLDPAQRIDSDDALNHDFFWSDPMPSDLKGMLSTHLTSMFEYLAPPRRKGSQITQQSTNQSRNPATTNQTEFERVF
# CDK9/cyclin T, sequence (O60563 whole entry partner, species assumed): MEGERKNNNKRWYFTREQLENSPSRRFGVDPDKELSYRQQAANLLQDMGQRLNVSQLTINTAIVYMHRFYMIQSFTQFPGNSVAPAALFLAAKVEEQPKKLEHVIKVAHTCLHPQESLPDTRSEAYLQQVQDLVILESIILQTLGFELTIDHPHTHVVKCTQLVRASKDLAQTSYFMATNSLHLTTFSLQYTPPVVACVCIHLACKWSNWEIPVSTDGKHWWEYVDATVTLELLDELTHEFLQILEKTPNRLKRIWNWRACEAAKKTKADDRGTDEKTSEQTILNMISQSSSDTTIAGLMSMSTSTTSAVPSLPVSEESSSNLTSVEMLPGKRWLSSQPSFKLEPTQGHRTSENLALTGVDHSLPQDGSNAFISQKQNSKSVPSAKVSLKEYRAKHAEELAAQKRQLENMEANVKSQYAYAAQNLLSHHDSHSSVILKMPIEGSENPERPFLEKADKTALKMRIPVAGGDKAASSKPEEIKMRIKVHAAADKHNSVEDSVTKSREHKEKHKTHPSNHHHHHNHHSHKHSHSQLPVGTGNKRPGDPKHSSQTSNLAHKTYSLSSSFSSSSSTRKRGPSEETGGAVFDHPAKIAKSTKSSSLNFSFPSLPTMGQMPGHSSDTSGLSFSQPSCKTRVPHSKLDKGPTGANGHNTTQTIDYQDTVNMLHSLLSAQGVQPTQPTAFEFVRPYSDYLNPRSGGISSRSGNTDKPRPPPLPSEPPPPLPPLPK
# [12] = target: Pim1 (Homo sapiens, UniProt P11309); assay: IC50 towards inhibition of various kinases: Pim1; format: biochemical
# Pim1, sequence (P11309 whole entry, species assumed): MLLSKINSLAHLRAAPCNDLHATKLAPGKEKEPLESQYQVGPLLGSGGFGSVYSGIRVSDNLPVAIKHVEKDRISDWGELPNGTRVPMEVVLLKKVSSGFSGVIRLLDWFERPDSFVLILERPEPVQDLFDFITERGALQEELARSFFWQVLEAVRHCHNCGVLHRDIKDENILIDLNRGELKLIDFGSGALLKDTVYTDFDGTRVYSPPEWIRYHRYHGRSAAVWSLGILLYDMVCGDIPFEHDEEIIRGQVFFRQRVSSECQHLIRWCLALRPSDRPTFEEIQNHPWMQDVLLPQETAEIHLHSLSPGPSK
# [13] = target: DYRK1B (Homo sapiens, UniProt Q9Y463); assay: IC50 towards inhibition of various kinases: DYRK1B; format: biochemical
# DYRK1B, sequence (Q9Y463 whole entry, species assumed): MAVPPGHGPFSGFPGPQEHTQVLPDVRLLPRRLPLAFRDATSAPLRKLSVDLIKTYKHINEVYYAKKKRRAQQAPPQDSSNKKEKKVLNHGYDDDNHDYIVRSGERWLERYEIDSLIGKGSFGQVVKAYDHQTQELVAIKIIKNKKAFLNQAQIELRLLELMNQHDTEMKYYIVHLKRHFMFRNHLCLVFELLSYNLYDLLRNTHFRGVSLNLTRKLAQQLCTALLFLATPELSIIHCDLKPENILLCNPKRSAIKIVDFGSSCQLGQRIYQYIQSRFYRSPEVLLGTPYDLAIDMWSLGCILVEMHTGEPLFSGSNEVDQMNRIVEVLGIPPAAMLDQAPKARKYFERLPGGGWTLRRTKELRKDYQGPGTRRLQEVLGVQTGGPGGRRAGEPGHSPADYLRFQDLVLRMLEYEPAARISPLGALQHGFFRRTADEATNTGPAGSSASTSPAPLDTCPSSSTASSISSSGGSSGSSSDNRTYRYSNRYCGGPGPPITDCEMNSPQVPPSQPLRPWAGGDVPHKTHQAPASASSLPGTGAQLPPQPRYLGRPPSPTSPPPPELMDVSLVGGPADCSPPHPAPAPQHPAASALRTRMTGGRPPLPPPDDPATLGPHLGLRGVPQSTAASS
# [14] = test system: CDK1/cyclin B; assay: IC50 towards inhibition of various kinases: CDK1/cyclin B; format: biochemical
# [15] = target: PfGSK-3 (Plasmodium falciparum, UniProt O77344); assay: biochemical; conditions: read-out: IC50 value towards inhibition of PfGSK-3
# PfGSK-3, sequence (O77344 1-440): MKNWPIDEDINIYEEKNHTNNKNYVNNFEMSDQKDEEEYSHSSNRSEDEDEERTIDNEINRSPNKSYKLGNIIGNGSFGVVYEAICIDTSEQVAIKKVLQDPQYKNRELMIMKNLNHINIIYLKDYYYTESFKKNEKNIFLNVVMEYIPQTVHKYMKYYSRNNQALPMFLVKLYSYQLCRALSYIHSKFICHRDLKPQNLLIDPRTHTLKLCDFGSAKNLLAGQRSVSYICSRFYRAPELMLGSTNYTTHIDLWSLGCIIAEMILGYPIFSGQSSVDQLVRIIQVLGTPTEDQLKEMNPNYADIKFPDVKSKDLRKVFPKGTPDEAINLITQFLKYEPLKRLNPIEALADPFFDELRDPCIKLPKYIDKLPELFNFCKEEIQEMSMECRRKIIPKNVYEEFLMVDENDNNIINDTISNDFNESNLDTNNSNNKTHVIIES
# [16] = target: CLK4 (Homo sapiens, UniProt Q9HAZ1); assay: IC50 towards inhibition of various kinases: CLK4; format: biochemical
# [17] = target: CLK3 (Homo sapiens, UniProt P49761); assay: IC50 towards inhibition of various kinases: CLK3; format: biochemical
# CLK3, sequence (P49761 whole entry, species assumed): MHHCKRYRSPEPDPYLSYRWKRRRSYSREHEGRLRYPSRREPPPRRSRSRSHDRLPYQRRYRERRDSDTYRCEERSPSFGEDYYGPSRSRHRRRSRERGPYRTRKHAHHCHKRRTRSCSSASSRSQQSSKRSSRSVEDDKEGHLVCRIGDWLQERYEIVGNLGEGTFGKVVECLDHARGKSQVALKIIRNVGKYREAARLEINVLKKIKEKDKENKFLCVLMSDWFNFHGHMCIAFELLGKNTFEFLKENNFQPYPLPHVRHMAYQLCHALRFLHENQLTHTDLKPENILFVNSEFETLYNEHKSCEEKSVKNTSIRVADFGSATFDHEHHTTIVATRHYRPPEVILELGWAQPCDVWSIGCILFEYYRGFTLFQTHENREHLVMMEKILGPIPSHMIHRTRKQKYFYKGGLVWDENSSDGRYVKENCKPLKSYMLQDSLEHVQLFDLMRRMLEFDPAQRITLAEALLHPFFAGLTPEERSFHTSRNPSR
# [18] = test system: CK1δ/ε; assay: IC50 towards inhibition of various kinases: CK1δ/ε; format: biochemical
# [19] = target: CLK2 (Homo sapiens, UniProt P49760); assay: IC50 towards inhibition of various kinases: CLK2; format: biochemical
# [20] = target: CK2 (Homo sapiens, UniProt P68400); assay: IC50 towards inhibition of various kinases: CK2; format: biochemical
# [21] = test system: GSK-3α/β; assay: IC50 towards inhibition of various kinases: GSK-3α/β; format: biochemical
smiles,measurement,setting,value
"CC[C@H](CO)Nc1nc(NCc2ccccc2)c2ncn(C(C)C)c2n1 [(R)-roscovitine, 2-(R)-(1-ethyl-2-hydroxyethylamino)-6-benzylamino-9-isopropylpurine, reference compound]",rescue of bacterial killing (intracellular P. aeruginosa growth),[1],significantly rescues bacterial killing
same,prevention of bacterial growth in culture (optical density),[2]; 20 μM,unable to prevent bacterial growth
same,phagosomal acidification over phagosomal pH observed in untreated cells,[3],significantly enhance acidification
same,IC50,[4],59 µM
same,rescue of bacterial killing (intracellular P. aeruginosa growth),[5],significantly rescues bacterial killing
same,IC50,[6],2.3 µM
same,fluorescence from pHrodo-Red conjugated E. coli Bioparticles phagocytosis,"[7]; FIG. 4A, alveolar macrophages, compared to control",decreased
same,fluorescence resulting from rhodamine-110 processing by lysosomal proteases,"[7]; FIG. 4A, confocal microscopy, compared to control without compound",increased
"CC(C)n1cnc2c(NCc3ccccc3)nc(N[C@@H](CO)C(=O)O)nc21 [Compound 6, (2S)-2-[[6-(benzylamino)-9-isopropyl-purin-2-yl]amino]-3-hydroxy-propanoic acid]",melting point,,120 to 130 °C
"CC[C@@H](Nc1nc(NCc2ccccc2)c2ncn(C(C)C)c2n1)C(=O)O [Metabolite M3, (2R)-2-[[9-isopropyl-6-(phenylmethylamino)purin-2-yl]amino]butanoic acid]",kinase inhibiting properties,[8],does not exhibit kinase inhibiting properties
same,IC50,[9],19 µM
same,IC50,[10],18 µM
same,IC50,[11],> 10 µM
same,rescue of bacterial killing (intracellular P. aeruginosa growth),[1],at least as efficient as with (R)-roscovitine
same,prevention of bacterial growth in culture (optical density),[2]; 20 μM,unable to prevent bacterial growth
same,phagosomal acidification over phagosomal pH observed in untreated cells,[3],significantly enhance acidification
same,IC50,[12],> 100 µM
same,IC50,[13],22 µM
same,IC50,[14],11 µM
same,IC50,[4],> 100 µM
same,rescue of bacterial killing (intracellular P. aeruginosa growth),[5],at least as efficient as with (R)-roscovitine
same,IC50,[15],> 100 µM
same,IC50,[6],23 µM
same,IC50,[16],19 µM
same,IC50,[17],52 µM
same,IC50,[18],21 µM
same,IC50,[19],14 µM
same,IC50,[20],> 100 µM
same,IC50,[21],> 100 µM
same,lysosomes fusion / rhodamine-110 processing by lysosomal proteases,"[7]; FIG. 4B, 10 μM, mouse alveolar macrophages, versus control cells, listed as M3 metabolite",increased; also recorded: enhanced lysosomes fusion
CO/C1=C\C(C)=C\[C@@H](C)[C@@H](O)[C@@H](C)C/C(C)=C/C=C/[C@H](OC)[C@@H]([C@@H](C)[C@@H](O)[C@H](C)[C@@]2(O)C[C@@H](O)[C@H](C)[C@@H](C(C)C)O2)OC1=O [bafilomycin],prevention of bacterial growth in culture (optical density),[2]; 1 μM,unable to prevent bacterial growth
